Measurements as given in patent US8536199B2, “Oral combination of vitamins” (priority 2008, dated 2013).

Tested on: pregnant women in first trimester (nausea and vomiting, morning sickness)
Assay: Treatment of morning sickness in pregnant women with chewable tablets (volunteer reports)
Assay type: in vivo, human
Conditions: volunteer 8, recalled from their first pregnancy
Text: A group of pregnant women were provided with the tablets, as prepared in Example 3, and were advised to take one to two tablets per day.

## Cc1ncc(CO)c(CO)c1O [vitamin B6, pyridoxine]
  Reported effect of vitamin B6 injections on nausea of pregnancy: did not feel helped
